Legend:
[1] = tested on: ragweed pollen sensitized rats; assay: Experimental allergic conjunctivitis, ragweed pollen sensitized rats; assay type: in vivo, Sprague-Dawley rats
Source text: In this Example, the potential protective effect of a contrast material on experimental allergic conjunctivitis induced in rats was examined. The rats were sensitized systemically to either ovalbumin or ragweed pollen and 10 to 12 days later obtained local sensitization by several applications of the respective antigens to the eyes. The rats were then challenged with a larger dose of the antigen accompanied by either the contrast media or equiosmolal saline and sacrificed at several different time periods for examination of the excised eyes.
The tissues were examined on a “blinded” basis and assigned a 0 to 3+ rating based on the perceived abundance of inflammatory cells (mostly lymphocytes, but also including eosinophils, polymorphonuclear leukocytes, and mast cells). The ovalbumin experiment was carried out at 3 hours post antigen application (8 rats) and at 24 hours post application (8 rats) and the ragweed study was carried out at 1 hour post application (8 rats) and at 24 hours post application (8 rats). The cumulative scores for the ratings in each set of rats were recorded. Details of the ovalbumin study are as follows.
A ragweed pollen experiment also involved 16 Sprague-Dawley rats born approximately 2 months previously and sensitized on Day 1 with SQ injections of 0.1 ml of N. saline containing 100 μg of ragweed pollen (P-0146, Sigma) and 20 mg alum. On Day 14, 20 μl of saline (left eye) or 20 μl of IODIXANOL (right eye) were applied to the eyes. 15 min. later, both eyes were treated with 10 μl of phosphate buffered saline containing 1.5 mg of ragweed pollen. The process was done 4 times at 15 min. intervals.

[2] = tested on: ovalbumin-sensitized Sprague Dawley rats; assay: Blood pressure in ovalbumin anaphylaxis of ovalbumin-sensitized rats; assay type: in vivo; settings: CM i.v. 6 hours before, 45 minutes before, concurrently, or 10 minutes after 10 mg ovalbumin
Protocol: To further substantiate the concept that contrast media, acting as pseudoantigens, could interfere with existing antigen-antibody reactions, an experiment was conducted where a series of rats were sensitized to ovalbumin and later challenged the rats by intravenous injections of ovalbumin.
Varying CM or other materials were injected into the tail vein of anesthetized Sprague Dawley rats ([…]). The CM tested were IOXAGLATE and IODIXANOL. Both are CM dimers and IOXAGLATE is ionic and IODIXANOL is nonionic. The CM injections were done 12 to 14 days after sensitization of the rats by intraperitoneal injections of 1 mg of ovalbumin in normal saline. A Propaq blood pressure apparatus was connected to polyethylene catheters inserted into a carotid artery to monitor mean arterial blood pressure. Injection rates were 6 ml/kg/min. The CM were injected I.V. either 6 hours before, 45 minutes before, concurrent with, or 10 minutes post challenge of a dose of 10 mg of ovalbumin. Saline injections, equiosmolar to the CM and injected at the same time intervals served as controls.

[3] = tested on: rats injected intradermally with serum from ovalbumin sensitized rats; assay: Passive cutaneous anaphylaxis (PCA), Evans Blue extravasation; assay type: in vivo; settings: for Stain (mm ± S.E./10): 50 μl sensitized serum
Protocol: In a further test of the ability of appropriate contrast media to mitigate ongoing antigen-antibody reactions, a passive cutaneous anaphylaxis (PCA) experiment was performed in rats.
In this Example, rats were injected intradermally with 50 μL of serum from ovalbumin sensitized rats and varying mixtures of Na/meglumine iothalamate (MD-76; 370 mg iodine/ml, Mallinckrodt) and normal saline to a total of 50 μl. This was followed in 5-7 hours by intravenous injections of 1 mg ovalbumin along with Evans Blue and then measurement of the subsequent extravasation of the blue coloring in the area under the skin. Evans Blue binds to serum albumin and the diameter of the area of blue indicates extravasation of albumin secondary to specific antigen-antibody reactions. […] In this case, where large amounts of CM are available due to local deposition, even an ionic monomer was sufficient to block specific antibody-antigen reactivity (see Table III below).

[4] = tested on: Sprague Dawley Rats; assay: Mean arterial blood pressure after i.v. contrast media injection, Sprague Dawley rats; assay type: in vivo; settings: mean ± S.E.
[5] = tested on: Brown Norway Rats; assay: Mean arterial blood pressure after i.v. contrast media injection, Brown Norway rats; assay type: in vivo; settings: mean ± S.E.
[6] = tested on: Brown-Norway and Sprague Dawley rats; assay: Blood pressure changes in rats after H-1 blocker, L-NAME or contrast media (text and FIGS. 4A-4B); assay type: in vivo
[7] = tested on: IgG anti-γ-globulin; assay: Passive red blood cell hemagglutination inhibition, γ-globulin vs. anti-γ-globulin; assay type: binding; settings: γ-globulin bound to sheep RBC; incubation 2-3 hours at room temperature
Source text: Employing a highly sensitive test for antibody-antigen complexing (passive red blood cell hemagglutination inhibition), we found what we consider the answer to this problem. Ovalbumin and gamma globulin (Sigma) were bound to glutaraldehyde stabilized sheep red blood cells (Inter-Cell Technologies, Hopewell, N.J.). Bis-diazotized benzidine was used to bind the ovalbumin to the RBC's. The gamma-globulin bound directly. In both the case of the ovalbumin and the gamma-globulin, the sensitized red blood cells were allowed to incubate with each of the contrast media (methylglucamine iothalamate [CONRAY; 282 mg iodine/ml, Mallinckrodt Medical, St. Louis Mo.], ioversol [[…] 320; 320 mg iodine/ml, […]; 320 mg iodine/ml, Mallinckrodt] and […]; 300 mg iodine/ml, Schering Pharmaceutical; […] When competition occurred, there would be a diminished diameter of the agglutination, depending on the antibody titer that could be compared to a control, where saline was substituted for the CM. With complete competition (inhibition), no agglutination would be visible and the RBCs would form a small button of cells at the bottom of the microtiter well. Visible agglutination was evaluated on a 1+ to 4+ basis. Studies were also carried out where the RBCs were incubated with CM before or after binding of the antigen to BDB or the RBC to determine whether competition of the CM with the antigen might actually represent displacement of the […] from the RBC surface. It was discovered that contrast media can in fact act as an antigen and combine with antibodies ([…]. and […]., Academic Radiology 1998, 5 (suppl. 1; […]-[…])). This was shown when, at various concentrations, individual contrast media would inhibit the agglutination of RBC-attached ovalbumin or RBC-attached gamma globulin in the presence of their respective antibodies, thus resulting in a button of cells, rather than agglutination, in the bottom of the microtiter well.

CC(=O)N(CC(O)CN(C(C)=O)c1c(I)c(C(=O)NCC(O)CO)c(I)c(C(=O)NCC(O)CO)c1I)c1c(I)c(C(=O)NCC(O)CO)c(I)c(C(=O)NCC(O)CO)c1I (centres unmarked) [IODIXANOL]
Cumulative score of inflammatory cell infiltration (0 to 3+ rating per eye) ([1]; 1 HOUR READING, 20 μl applied to the eye before ragweed pollen, 8 rats): 0
Protection against ragweed pollen conjunctivitis (in words) ([1]; local application): provides a degree of protection
Number of zero scores in the group ([1]; no absolute zeros in the saline group, study (ragweed or combined) not specified): 3
Return of blood pressure after ovalbumin challenge, compared with equiosmolar saline [2]: more rapid return of the blood pressure to normal levels

Na/meglumine iothalamate [MD-76]
Stain (mm ± S.E./10) ([3]; Site 1: 50 μl CM, 0 μl saline): 7.5 ± 7 mm
Stain (mm ± S.E./10) ([3]; Site 2: 40 μl CM, 10 μl saline): 10.0 ± 10 mm
Stain (mm ± S.E./10) ([3]; Site 3: 30 μl CM, 20 μl saline): 17.5 ± 10 mm
Stain (mm ± S.E./10) ([3]; Site 4: 20 μl CM, 30 μl saline): 62.5 ± 28 mm
Stain (mm ± S.E./10) ([3]; Site 5: 10 μl CM, 40 μl saline): 115 ± 60 mm
Stain ([3]; controls with nonsensitized serum (3 rats), 0, 25, and 50 μl CM): no stain

C[C@H](O)C(=O)Nc1c(I)c(C(=O)NC(CO)CO)c(I)c(C(=O)NC(CO)CO)c1I [Isovue, IOPAMIDOL]
Net decrease in mean arterial blood pressure ([4]; Monomers (8 ml)): decrease (27 ± 8.6) (2) mm Hg
Net decrease in mean arterial blood pressure ([5]; Monomers (8 ml)): decrease (36 ± 8.6) (2) mm Hg

CN(C)CCOC(c1ccccc1)c1ccccc1 [diphenyhydramine, diphenhydramine]
Change in blood pressure (in words) ([6]; substance injected by itself): immediate elevation in blood pressure

CNC(=O)c1c(I)c(C(=O)NCC(=O)Nc2c(I)c(C(=O)O)c(I)c(C(=O)NCCO)c2I)c(I)c(N(C)C(C)=O)c1I [HEXABRIX, IOXAGLATE]
Lowest concentration of CM showing a 2+ or 3+ inhibition of 1/500 IgG anti-γ-globulin [7]: 8.0 mg/mL
Return of blood pressure after ovalbumin challenge, compared with equiosmolar saline [2]: more rapid return of the blood pressure to normal levels
Net increase in mean arterial blood pressure ([5]; Dimers (8 ml)): increase (31 ± 4.6) (3) mm Hg

meglumine/sodium diatrizoate [Angiovist]
Net decrease in mean arterial blood pressure ([5]; Monomers (8 ml)): decrease (40 ± 0.0) (1) mm Hg

CNC(=O)c1c(I)c(NC(C)=O)c(I)c(C(=O)O)c1I.CNC[C@H](O)[C@@H](O)[C@H](O)[C@H](O)CO [Conray, methylglucamine iothalamate]
Lowest concentration of CM showing a 2+ or 3+ inhibition of 1/500 IgG anti-γ-globulin [7]: 28.2 mg/mL
Net decrease in mean arterial blood pressure ([4]; Monomers (4 ml)): decrease (55 ± 5.0) (3) mm Hg
Net decrease in mean arterial blood pressure ([5]; Monomers (4 ml)): decrease (37 ± 1.6) (3) mm Hg

COC(=O)[C@@H](N)CCCNC(=N)N[N+](=O)[O-] [L-NAME, NG-nitro-L-arginine methyl ester]
Change in blood pressure (in words) ([6]; substance injected by itself): immediate elevation in blood pressure

CNC(=O)c1c(I)c(NC(C)=O)c([125I])c(C(=O)[O-])c1[125I].[Na+] [Na LOTHALAMATE]
Lowest concentration of CM showing a 2+ or 3+ inhibition of 1/500 IgG anti-γ-globulin [7]: 28.2 mg/mL

O=C(NCC(O)CO)c1c(I)c(C(=O)NCC(O)CO)c(I)c(N(CCO)C(=O)CO)c1I (centres unmarked) [OPTIRAY, IOVERSOL]
Lowest concentration of CM showing a 2+ or 3+ inhibition of 1/500 IgG anti-γ-globulin [7]: 16.0 mg/mL
Net decrease in mean arterial blood pressure ([4]; Monomers (8 ml)): decrease (22 ± 0.0) (1) mm Hg
Net decrease in mean arterial blood pressure ([5]; Monomers (4 ml)): decrease (20 ± 1.5) (3) mm Hg
Net decrease in mean arterial blood pressure ([5]; Monomers (8 ml)): decrease (33 ± 2.8) (3) mm Hg

CN(C(=O)CC(=O)N(C)c1c(I)c(C(=O)NC(CO)C(O)CO)c(I)c(C(=O)NC(CO)C(O)CO)c1I)c1c(I)c(C(=O)NC(CO)C(O)CO)c(I)c(C(=O)NC(CO)C(O)CO)c1I (centres unmarked) [ISOVIST, IOTROLAN]
Lowest concentration of CM showing a 2+ or 3+ inhibition of 1/500 IgG anti-γ-globulin [7]: 14.0 mg/mL
Net increase in mean arterial blood pressure ([4]; Dimers (8 ml)): increase (11 ± 4.6) (3) mm Hg
Net increase in mean arterial blood pressure ([5]; Dimers (4 ml)): increase (18 ± 0.00 (1) mm Hg
Net increase in mean arterial blood pressure ([5]; Dimers (8 ml)): increase (20 ± 2.0) (4) mm Hg
Change in blood pressure (in words) ([6]; production of nitric oxide blocked by L-NAME): can no longer produce an elevation in blood pressure
Change in blood pressure (in words) ([6]; substance injected by itself): produces an elevation in pressure

— patent US7838557B2, “Concentrated X-ray contrast media can act as universal antigens and can inhibit or prevent allergic reactions” (priority 2001, dated 2010)
